# Source: patent publication US7459450B2, “Neuropeptide receptor modulators” (Schering Corporation, priority 2004, dated 2008)
# Molecular target: T1, Human NPY Y1 receptors (Homo sapiens, UniProt P25929)
# T1 construct: expressed in transfected cells; host or cells: CHO cells (membrane protein)
# T1 sequence (P25929 1-384): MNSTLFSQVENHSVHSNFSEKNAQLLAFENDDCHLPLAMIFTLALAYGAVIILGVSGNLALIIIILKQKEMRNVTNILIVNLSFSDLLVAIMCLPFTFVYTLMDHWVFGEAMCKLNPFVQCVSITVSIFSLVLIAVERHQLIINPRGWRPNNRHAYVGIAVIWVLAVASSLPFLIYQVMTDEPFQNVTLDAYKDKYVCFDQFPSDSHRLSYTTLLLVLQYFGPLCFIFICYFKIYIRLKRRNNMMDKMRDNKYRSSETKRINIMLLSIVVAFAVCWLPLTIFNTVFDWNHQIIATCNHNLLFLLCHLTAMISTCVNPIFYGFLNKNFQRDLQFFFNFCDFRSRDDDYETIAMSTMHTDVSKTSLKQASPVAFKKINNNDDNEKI
# Experiment: NPY Receptor Binding Assay
# Conditions: not given
# Description: NPY Receptor Binding Assay
# Human NPY Y1 receptors were expressed in CHO cells. Binding assays were performed in 50 mM HEPES, pH 7.2, 2.5 mM CaCl2, 1 mM MgCl2 and 0.1% BSA containing 5-10 μg of membrane protein and 0.1 nM […] in a total volume of 200 μl. Non-specific binding was determined in the presence of 1 μM NPY. The reaction mixtures were incubated for 90 minutes at room temperature then filtered through Millipore MAFC glass fiber filter plates which had been pre-soaked in 0.5% polyethleneimine. The filters were washed with phosphate-buffered saline, and radioactivity was measured in a Packard TopCount scintillation counter.
row,Compound,Ki
1,CC(C)C[C@@H]1N/C(=N/c2ccc(CCNc3nc4ccc([N+](=O)[O-])cc4s3)cc2)SC1=O [Example 340],> 10 µM
2,O=C1S/C(=N\c2ccc(CCNc3nc4cc(Cl)c(Cl)cc4s3)cc2)N2CCC[C@@H]12 [Example 390],> 10 µM
3,COc1cccc2sc(NCCc3ccc(/N=C4/N[C@@H](C(C)C)C(=O)S4)cc3)nc12 [Example 365],> 10 µM
4,O=C1S/C(=N\c2ccc(CCNc3nc4cc(Cl)c(Cl)cc4s3)cc2)N[C@H]1Cc1ccccc1 [Example 360],> 10 µM
5,Cc1cccc2sc(NCCc3ccc(/N=C4/N[C@@H](C(C)C)C(=O)S4)cc3)nc12 [Example 371],> 10 µM
6,CC(C)C[C@@H]1N/C(=N\c2ccccc2CCNc2nc3ccccc3s2)SC1=O [Example 411],> 10 µM
7,COc1ccc2nc(NCCc3ccc(/N=C4/N[C@@H](C(C)C)C(=O)S4)cc3)sc2c1 [Example 346],> 10 µM
8,COc1cccc2sc(NCCc3ccc(/N=C4\SC(=O)[C@@H]5CCCN45)cc3)nc12 [Example 366],> 10 µM
9,O=C1S/C(=N\c2ccc(CCNc3nc4ccc([N+](=O)[O-])cc4s3)cc2)N[C@H]1Cc1ccccc1 [Example 355],> 10 µM

# Second part, the molecule after the results:
row,Ki,Compound
1,> 10 µM,O=C1S/C(=N/c2cccc(CCNc3nc4ccccc4s3)c2)N[C@H]1Cc1ccccc1 [Example 406]
2,> 10 µM,CC(C)C[C@@H]1N/C(=N/c2ccc(CCNc3nc4ccccc4s3)cc2)SC1=O [Example 396]

# Same assay, conditions: Procedure A compounds, rated A/B/C
row,Ki,Compound
1,1 to 10 µM,Cc1ccc2nc(NCCc3ccc(NC4=NCCS4)cc3)sc2c1 [Example 17]
2,1 to 10 µM,CS(=O)(=O)c1ccc2nc(NCCc3ccc(NC4=NCCS4)cc3)sc2c1 [Example 15]
3,1 to 10 µM,COc1ccc2nc(NCCc3ccc(NC4=NCCS4)cc3)sc2c1 [Example 16]
4,1 to 10 µM,COc1cccc2sc(NCCc3ccc(NC4=NCCS4)cc3)nc12 [Example 22]

# Same assay, conditions: Procedure C compounds, rated A/B/C
row,Ki,Compound
1,> 10 µM,CC[C@H](C)[C@@H]1N=C(Nc2ccc(CCNc3nc4ccccc4s3)cc2)N(C(=O)c2ccccc2)C1=O [Example 52]
2,> 10 µM,O=C(O)C[C@@H]1N=C(Nc2ccc(CCNc3nc4ccccc4s3)cc2)N(C(=O)c2ccccc2)C1=O [Example 49]

# Same assay, conditions: Procedure E compounds, rated A/B/C
row,Compound,Ki
1,Cc1cccc2sc(NCCc3ccc(/N=C4/NCCCS4)cc3)nc12 [Example 209],> 10 µM
2,CC(C)[C@H]1CS/C(=N\c2ccc(CCNc3nc4ccc(Cl)cc4s3)cc2)N1 [Example 107],1 to 10 µM
3,O=[N+]([O-])c1ccc2nc(NCCc3ccc(/N=C4/NC5(CCCC5)CS4)cc3)sc2c1 [Example 75],1 to 10 µM
4,Clc1ccc2nc(NCCc3ccc(/N=C4/N[C@@H](Cc5c[nH]cn5)CS4)cc3)sc2c1 [Example 238],1 to 10 µM
5,CCCC1CS/C(=N\c2ccc(CCNc3nc4ccc(OC)cc4s3)cc2)N1 (stereo not shown) [Example 214],< 1 µM
6,c1ccc(C2CCS/C(=N/c3cccc(CCNc4nc5ccccc5s4)c3)N2)cc1 (stereo not shown) [Example 71],> 10 µM
7,CC(C)C[C@@H]1CS/C(=N\c2ccc(CCNc3nc4ccc(F)cc4s3)cc2)N1 [Example 297],< 1 µM
8,Fc1ccc2nc(NCCc3ccc(/N=C4/NCCCS4)cc3)sc2c1 [Example 211],< 1 µM
9,C[C@@H]1CS/C(=N\c2ccc(CCNc3nc4ccc(Cl)cc4s3)cc2)N1 [Example 109],1 to 10 µM
10,c1ccc(C2CCS/C(=N/c3ccccc3CCNc3nc4ccccc4s3)N2)cc1 (stereo not shown) [Example 70],> 10 µM
11,COc1cccc2sc(NCCc3ccc(/N=C4/N[C@H]5c6ccccc6CC5S4)cc3)nc12 (stereo partly shown) [Example 325],> 10 µM
12,Cc1ccc2nc(NCCc3ccc(/N=C4/NC5(CCCC5)CS4)cc3)sc2c1 [Example 226],1 to 10 µM
13,COc1ccc2nc(NCCc3ccc(/N=C4/NC(c5ccccc5)CCS4)cc3)sc2c1 (stereo not shown) [Example 203],< 1 µM
14,Cc1ccc2nc(NCCc3ccc(/N=C4/NC(C)(C)CS4)cc3)sc2c1 [Example 227],< 1 µM
15,CC(C)C[C@@H]1CS/C(=N\c2ccc(CCNc3nc4ccc(Cl)cc4s3)cc2)N1 [Example 100],1 to 10 µM
16,Cc1cccc2sc(NCCc3ccc(/N=C4/NCC(c5ccccc5)S4)cc3)nc12 (stereo not shown) [Example 188],> 10 µM
17,COc1cccc2sc(NCCc3ccc(/N=C4/NCCCS4)cc3)nc12 [Example 207],> 10 µM
18,CCCC1CS/C(=N\c2ccc(CCNc3nc4ccc(S(C)(=O)=O)cc4s3)cc2)N1 (stereo not shown) [Example 249],1 to 10 µM

# Second part, the molecule after the results:
row,Ki,Compound
1,1 to 10 µM,CS(=O)(=O)c1ccc2nc(NCCc3ccc(NC4=NCCCS4)cc3)sc2c1 [Example 65]
2,1 to 10 µM,CCC1CS/C(=N\c2ccc(CCNc3nc4ccc(Cl)cc4s3)cc2)N1 (stereo not shown) [Example 103]
3,> 10 µM,Cc1ccc2nc(NCCc3ccc(/N=C4/NCC(c5ccccc5)S4)cc3)sc2c1 (stereo not shown) [Example 90]
4,> 10 µM,Cc1ccc2nc(NCCc3ccc(/N=C4/NCC(C)S4)cc3)sc2c1 (stereo not shown) [Example 324]
5,< 1 µM,CCCC1CS/C(=N\c2ccc(CCNc3nc4ccccc4s3)cc2)N1 (stereo not shown) [Example 264]
6,< 1 µM,Brc1ccc(C2CCSC(Nc3ccc(CCNc4nc5ccccc5s4)cc3)=N2)cc1 (stereo not shown) [Example 335]
7,> 10 µM,Fc1ccc2nc(NCCc3ccc(/N=C4/NCC(c5ccccc5)S4)cc3)sc2c1 (stereo not shown) [Example 329]
8,> 10 µM,c1ccc2c(CC3CSC(Nc4ccc(CCNc5nc6ccccc6s5)cc4)=N3)cccc2c1 (stereo not shown) [Example 336]
9,< 1 µM,Clc1ccc2nc(NCCc3ccc(NC4=NCCCS4)cc3)sc2c1 [Example 213]
10,< 1 µM,c1ccc([C@@H]2CSC(Nc3ccc(CCNc4nc5ccccc5s4)cc3)=N2)cc1 [Example 196]
11,1 to 10 µM,Cc1ccc2nc(NCCc3ccc(/N=C4/N[C@@H](Cc5ccccc5)CS4)cc3)sc2c1 [Example 87]
12,> 10 µM,COc1ccc2nc(NCCc3ccc(/N=C4/NCC(c5ccccc5)S4)cc3)sc2c1 (stereo not shown) [Example 85]
13,< 1 µM,CC[C@@H]1CS/C(=N\c2ccc(CCNc3nc4ccc(Cl)cc4s3)cc2)N1 [Example 110]

# Same assay, conditions: Procedure G compounds, rated A/B/C
row,Ki,Compound
1,> 10 µM,CCc1csc(Nc2ccc(CCNc3nc4ccccc4s3)cc2)n1 [Example 430]
2,> 10 µM,CC(C)(C)c1csc(Nc2ccc(CCNc3nc4ccccc4s3)cc2)n1 [Example 433]
3,> 10 µM,c1ccc2sc(NCCc3ccc(Nc4nc(C56C[C@H]7C[C@@H](C5)C[C@@H](C6)C7)cs4)cc3)nc2c1 [Example 424]
4,> 10 µM,COc1ccc(-c2csc(Nc3ccc(CCNc4nc5ccccc5s4)cc3)n2)c(OC)c1 [Example 426]
5,> 10 µM,c1ccc(-c2ccc(-c3csc(Nc4ccc(CCNc5nc6ccccc6s5)cc4)n3)cc2)cc1 [Example 419]
6,> 10 µM,c1ccc2cc(-c3csc(Nc4ccc(CCNc5nc6ccccc6s5)cc4)n3)ccc2c1 [Example 422]
7,> 10 µM,CCOC(=O)c1sc(Nc2ccc(CCNc3nc4ccccc4s3)cc2)nc1C [Example 427]
8,> 10 µM,c1ccc(-c2nc(Nc3ccc(CCNc4nc5ccccc5s4)cc3)sc2-c2ccccc2)cc1 [Example 421]

# Same assay, conditions: Procedure H compounds, rated A/B/C
row,Ki,Compound
1,> 10 µM,O=C1CSC(Nc2ccc(CCNc3nc4ccccc4s3)cc2)=N1 [Example 439]
2,> 10 µM,CCC1SC(Nc2ccc(CCNc3nc4ccccc4s3)cc2)=NC1=O (stereo not shown) [Example 443]
3,> 10 µM,O=C1N=C(Nc2ccc(CCNc3nc4ccccc4s3)cc2)SC1c1ccccc1O (stereo not shown) [Example 445]

# Same assay, conditions: Table 1, rated A/B/C
row,Ki,Compound
1,< 1 µM,c1ccc(C2CCCC(Nc3ccc(CCNc4nc5ccccc5s4)cc3)=N2)cc1 (stereo not shown) [Example 6]
2,< 1 µM,CC1CCSC(Nc2ccc(CCNc3nc4ccccc4s3)cc2)=N1 (stereo not shown) [Example 11]
